Measurements from patent US20260109732A1, “LIPID AMINES” (ModernaTX, Inc., priority 2021, published 2026).
Structures can show the parent of a compound that is named as a salt.

What was measured:
[1] = system: HeLa cells; experiment: CFTR Protein Expression Assay in HeLa Cells; format: cell-based, Human; settings: LNPs encapsulating CFTR mRNA, N=4 wells; 5 h serum-free then 24 h; immunofluorescence vs PBS control
Summary of the method: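 HeLa cells dosed with CFTR mRNA LNPs (70 mM NaCl final buffer matrix) in serum-free MEM for 5 h, then complete MEM for 24 h. Fixed cells immunostained with anti-CFTR monoclonal and Alexa 488 secondary, imaged confocally; CFTR intensity per cell expressed as fold-change versus PBS buffer control, N=4 wells.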

[2] = Encapsulation of mRNA nanoparticles with lipid amines using Ribogreen assay; format: physicochemical
Summary of the method: (§1)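 Ionizable lipid nanoparticles (IL1:DSPC:cholesterol:PEG-DMG-2K) formed by vortex mixing at pH 4, loaded with luciferase or CFTR mRNA at N:P 4.93, neutralized with TRIS pH 8.12, then modified with lipid amine SA50 at pH 7.5. Particle diameter and PDI read by DLS; mRNA encapsulation by Ribogreen assay.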

[3] = system: HeLa cells; experiment: Luciferase Protein Expression Assay in HeLa Cells; format: cell-based, Human; settings: LNPs encapsulating Luciferase mRNA, 25 ng per well, N=4 wells; 5 h serum-free then 24 h; ONE-Glo
Method: For HeLa studies evaluating luciferase protein expression, PEG-DMG-2K dissolved in a 20 mM TRIS buffer (pH 7.5) is added to the neutralized intermediate nanoparticle solution at a ratio of 1:6, bringing the solution to the final molar ratios of IL1:DSPC:cholesterol:PEG-DMG-2K of 48.5:11.1:38.9:1.5%. This nanoparticle formulation is then modified with lipid amines. In a typical example, nanoparticle formulation at a concentration of 0.18 mg/mL mRNA and a 0.56 mL volume is modified with lipid amine SA50 (467.2 nmol) prepared in buffer containing 20 mM TRIS, 14.3 mM sodium acetate, 32 g/L sucrose and 140 mM NaCl-pH 7.5 at a volumetric ratio of 1:1 of nanoparticle:buffer.
Lipid nanoparticle compositions were prepared in a manner analogous to that in example 2. To evaluate LNP cellular uptake and protein expression In Vitro, HeLa cells from ATCC.org (ATCC CCL-2) are used. The cells are cultured in complete Minimum Essential Medium (MVEM) and are plated in 96 well Cell Carrier Ultra plate with PDL coated surface (PerkinElmer) prior to running an experiment.
Cells were transfected with buffer control (PBS) or LNPs encapsulating Luciferase mRNA (25 ng per well; N=4 replicate wells) in serum-free MEM media. LNP transfected cells were incubated for 5 h, followed by media removal and supplementation with complete MEM media. Cells were further incubated in complete MEM media overnight (24 h). Following the 24 hr incubation, luciferase protein expression was measured using the ONE-Glo™ Luciferase Assay (Promega). Cells were lysed using 1× Passive Lysis Buffer (Cat. #E194A) for 10 min in a microplate mixer at room temperature. Luciferase in the supernatant was measured by adding Luciferase Assay Reagent (Cat. #E151A) containing luciferin. Bioluminescence was then immediately measured on a Synergy H1 plate reader (BioTek). The results shown in Table 3a show the Average Relative Light Units (RLU) of each sample tested.

[4] = Diameter and PDI from DLS measurements of mRNA nanoparticles with lipid amines; format: physicochemical
Summary of the method: as §1

[5] = CFTR mRNA nanoparticle with lipid amine
[6] = Luciferase mRNA nanoparticle modified with lipid amine

CC(C)CCC[C@@H](C)[C@H]1CC[C@H]2[C@@H]3CC=C4C[C@@H](OC(=O)CCC(=O)N(CCCN)CCCCCCCCN)CC[C@]4(C)[C@H]3CC[C@]12C [SA72, (3S,8S,9S,10R,13R,14S,17R)-10,13-Dimethyl-17-((R)-6-methylheptan-2-yl)-2,3,4,7,8,9,10,11,12,13,14,15,16,17-tetradecahydro-1H-cyclopenta[a]phenanthren-3-yl 4-((8-aminooctyl)(3-aminopropyl)amino)-4-oxobutanoate dihydrochloride]
Average fold-change in CFTR signal intensity per cell compared to buffer control ± standard deviation [1]: 6.6 ± 0.6 fold-change
% Encapsulation (Ribogreen) [2, 5]: 99.8%
% Encapsulation (Ribogreen) [2, 6]: 99.1%
Average Relative Light Units ± Standard Deviation [3]: 30826.5 ± 5913.2 Relative Light Units
Diameter (nm) [4, 5]: 73.0 nm
PDI [4, 5]: 0.11
Diameter (nm) [4, 6]: 72 nm
PDI [4, 6]: 0.11

CC(C)CCC[C@@H](C)[C@H]1CC[C@H]2[C@@H]3CC=C4C[C@@H](OC(=O)N(CCCCNCC(C)CN)CC(C)CN)CC[C@]4(C)[C@H]3CC[C@]12C (stereo partly drawn) [SA75, (3S,8S,9S,10R,13R,14S,17R)-10,13-dimethyl-17-((R)-6-methylheptan-2-yl)-2,3,4,7,8,9,10,11,12,13,14,15,16,17-tetradecahydro-1H-cyclopenta[a]phenanthren-3-yl (3-amino-2-methylpropyl)(4-((3-amino-2-methylpropyl)amino)butyl)carbamate trihydrochloride]
Average fold-change in CFTR signal intensity per cell compared to buffer control ± standard deviation [1]: 11.9 ± 0.6 fold-change
% Encapsulation (Ribogreen) [2, 5]: 100%
% Encapsulation (Ribogreen) [2, 6]: 98.8%
Average Relative Light Units ± Standard Deviation [3]: 37732.4 ± 6382.7 Relative Light Units
Diameter (nm) [4, 5]: 86.9 nm
PDI [4, 5]: 0.11
Diameter (nm) [4, 6]: 74 nm
PDI [4, 6]: 0.16

CC(C)CCC[C@@H](C)[C@H]1CC[C@H]2[C@@H]3CC=C4C[C@@H](OC(=O)N(CCCCNCCC(C)N)CCC(C)N)CC[C@]4(C)[C@H]3CC[C@]12C (stereo partly drawn) [SA76, (3S,8S,9S,10R,13R,14S,17R)-10,13-dimethyl-17-((R)-6-methylheptan-2-yl)-2,3,4,7,8,9,10,11,12,13,14,15,16,17-tetradecahydro-1H-cyclopenta[a]phenanthren-3-yl (3-aminobutyl)(4-((3-aminobutyl)amino)butyl)carbamate trihydrochloride]
Average fold-change in CFTR signal intensity per cell compared to buffer control ± standard deviation [1]: 12.0 ± 1.1 fold-change
% Encapsulation (Ribogreen) [2, 5]: 100%
% Encapsulation (Ribogreen) [2, 6]: 98.1%
Average Relative Light Units ± Standard Deviation [3]: 38232.8 ± 4603.5 Relative Light Units
Diameter (nm) [4, 5]: 83.9 nm
PDI [4, 5]: 0.11
Diameter (nm) [4, 6]: 75 nm
PDI [4, 6]: 0.20

CC(C)CCC[C@@H](C)[C@H]1CC[C@H]2[C@@H]3CC=C4C[C@@H](OC(=O)N(CCCCNCC(C)(C)CN)CC(C)(C)CN)CC[C@]4(C)[C@H]3CC[C@]12C [SA77, (3S,8S,9S,10R,13R,14S,17R)-10,13-dimethyl-17-((R)-6-methylheptan-2-yl)-2,3,4,7,8,9,10,11,12,13,14,15,16,17-tetradecahydro-1H-cyclopenta[a]phenanthren-3-yl (3-amino-2,2-dimethylpropyl)(4-((3-amino-2,2-dimethylpropyl)amino)butyl)carbamate trihydrochloride]
Average fold-change in CFTR signal intensity per cell compared to buffer control ± standard deviation [1]: 12.2 ± 1.3 fold-change
% Encapsulation (Ribogreen) [2, 5]: 100%
% Encapsulation (Ribogreen) [2, 6]: 98.2%
Average Relative Light Units ± Standard Deviation [3]: 39191.9 ± 4319 Relative Light Units
Diameter (nm) [4, 5]: 83.9 nm
PDI [4, 5]: 0.13
Diameter (nm) [4, 6]: 74 nm
PDI [4, 6]: 0.20

CC(C)CCC[C@@H](C)[C@H]1CC[C@H]2[C@@H]3CC=C4C[C@@H](OC(=O)N(CCCCNCCC(C)(C)N)CCC(C)(C)N)CC[C@]4(C)[C@H]3CC[C@]12C [SA78, (3S,8S,9S,10R,13R,14S,17R)-10,13-dimethyl-17-((R)-6-methylheptan-2-yl)-2,3,4,7,8,9,10,11,12,13,14,15,16,17-tetradecahydro-1H-cyclopenta[a]phenanthren-3-yl (3-amino-3-methylbutyl)(4-((3-amino-3-methylbutyl)amino)butyl)carbamate trihydrochloride]
Average fold-change in CFTR signal intensity per cell compared to buffer control ± standard deviation [1]: 11.3 ± 0.7 fold-change
% Encapsulation (Ribogreen) [2, 5]: 100%
% Encapsulation (Ribogreen) [2, 6]: 99.8%
Average Relative Light Units ± Standard Deviation [3]: 14341.8 ± 3497.6 Relative Light Units
Diameter (nm) [4, 5]: 87.7 nm
PDI [4, 5]: 0.17
Diameter (nm) [4, 6]: 76 nm
PDI [4, 6]: 0.20

CC(C)CCC[C@@H](C)[C@H]1CC[C@H]2[C@@H]3CC=C4C[C@@H](OC(=O)N(CCCCNCC(F)(F)CN)CC(F)(F)CN)CC[C@]4(C)[C@H]3CC[C@]12C [SA79, (3S,8S,9S,10R,13R,14S,17R)-10,13-dimethyl-17-((R)-6-methylheptan-2-yl)-2,3,4,7,8,9,10,11,12,13,14,15,16,17-tetradecahydro-1H-cyclopenta[a]phenanthren-3-yl (3-amino-2,2-difluoropropyl)(4-((3-amino-2,2-difluoropropyl)amino)butyl)carbamate trihydrochloride]
Average fold-change in CFTR signal intensity per cell compared to buffer control ± standard deviation [1]: 0.8 ± 0 fold-change
% Encapsulation (Ribogreen) [2, 5]: 97.9%
% Encapsulation (Ribogreen) [2, 6]: 97.0%
Average Relative Light Units ± Standard Deviation [3]: 105.1 ± 20 Relative Light Units
Diameter (nm) [4, 5]: 78.4 nm
PDI [4, 5]: 0.13
Diameter (nm) [4, 6]: 74 nm
PDI [4, 6]: 0.18

CC(C)CCC[C@@H](C)[C@H]1CC[C@H]2[C@@H]3CC=C4C[C@@H](OC(=O)N(CCCCCCN)CCCCCCN)CC[C@]4(C)[C@H]3CC[C@]12C [SA81, (3S,8S,9S,10R,13R,14S,17R)-10,13-Dimethyl-17-((R)-6-methylheptan-2-yl)-2,3,4,7,8,9,10,11,12,13,14,15,16,17-tetradecahydro-1H-cyclopenta[a]phenanthren-3-yl bis(6-aminohexyl)carbamate dihydrochloride]
Average fold-change in CFTR signal intensity per cell compared to buffer control ± standard deviation [1]: 4.4 ± 0.3 fold-change
% Encapsulation (Ribogreen) [2, 5]: 99.4%
% Encapsulation (Ribogreen) [2, 6]: 99.8%
Average Relative Light Units ± Standard Deviation [3]: 19619.8 ± 4362.6 Relative Light Units
Diameter (nm) [4, 5]: 87.6 nm
PDI [4, 5]: 0.18
Diameter (nm) [4, 6]: 72 nm
PDI [4, 6]: 0.12

CC[C@H](CC[C@@H](C)[C@H]1CC[C@H]2[C@@H]3CC=C4C[C@@H](OC(=O)N(CCCCCCN)CCCCCCN)CC[C@]4(C)[C@H]3CC[C@]12C)C(C)C [SA82, (3S,8S,9S,10R,13R,14S,17R)-17-((2R,5R)-5-Ethyl-6-methylheptan-2-yl)-10,13-dimethyl-2,3,4,7,8,9,10,11,12,13,14,15,16,17-tetradecahydro-1H-cyclopenta[a]phenanthren-3-yl bis(6-aminohexyl)carbamate dihydrochloride]
Average fold-change in CFTR signal intensity per cell compared to buffer control ± standard deviation [1]: 4.6 ± 0.2 fold-change
% Encapsulation (Ribogreen) [2, 5]: 99.4%
% Encapsulation (Ribogreen) [2, 6]: 99.1%
Average Relative Light Units ± Standard Deviation [3]: 33396.2 ± 4902.7 Relative Light Units
Diameter (nm) [4, 5]: 80.7 nm
PDI [4, 5]: 0.13
Diameter (nm) [4, 6]: 73 nm
PDI [4, 6]: 0.11
